Measured values from ChEMBL document CHEMBL4742387, “Condensed tricyclic compounds as protein kinase inhibitors” (2018).

Key:
[1] = target: T1, Serine/threonine-protein kinase haspin (Homo sapiens) (UniProt Q8TF76); experiment: Inhibition of haspin in human SW620 cells assessed as reduction in IFNgamma-induced H3T3 phosphorylation pre-incubated for 1 hr before IFNgamma stimulation for 3 hrs by Western blot analysis; type: cell-based; settings: SW-620, time 4.0 hrs
T1 sequence (whole entry): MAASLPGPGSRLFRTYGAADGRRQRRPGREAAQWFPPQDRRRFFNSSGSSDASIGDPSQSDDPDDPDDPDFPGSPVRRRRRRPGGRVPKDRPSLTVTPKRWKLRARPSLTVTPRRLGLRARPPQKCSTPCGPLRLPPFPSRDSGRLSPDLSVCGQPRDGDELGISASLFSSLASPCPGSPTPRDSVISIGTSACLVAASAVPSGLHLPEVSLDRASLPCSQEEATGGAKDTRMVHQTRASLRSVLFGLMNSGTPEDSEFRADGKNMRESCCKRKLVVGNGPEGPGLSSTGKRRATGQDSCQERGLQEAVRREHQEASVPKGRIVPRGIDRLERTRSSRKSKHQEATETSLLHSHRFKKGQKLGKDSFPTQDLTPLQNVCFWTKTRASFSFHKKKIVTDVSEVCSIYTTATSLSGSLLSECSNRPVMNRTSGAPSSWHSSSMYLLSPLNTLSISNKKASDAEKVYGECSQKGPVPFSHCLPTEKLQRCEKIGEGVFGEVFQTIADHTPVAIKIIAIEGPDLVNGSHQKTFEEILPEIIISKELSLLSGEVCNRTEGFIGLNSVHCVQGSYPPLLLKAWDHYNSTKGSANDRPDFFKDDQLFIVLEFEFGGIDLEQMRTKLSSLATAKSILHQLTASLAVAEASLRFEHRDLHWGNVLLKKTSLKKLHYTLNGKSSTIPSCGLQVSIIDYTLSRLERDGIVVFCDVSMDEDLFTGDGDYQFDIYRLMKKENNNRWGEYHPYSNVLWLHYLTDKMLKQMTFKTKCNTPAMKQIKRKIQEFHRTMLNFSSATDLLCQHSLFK

[2] = target: T2, Cyclin-dependent kinase 8 (Homo sapiens, UniProt P49336); experiment: Inhibition of CDK8 in human SW-620 cells assessed as reduction in STAT1 S727 phosphorylation pre-incubated for 1 hr before IFNgamma stimulation for 3 hrs by Western blot analysis; type: cell-based; settings: time 4.0 hrs
MOLM-13 = experiment: Antiproliferative activity against human MOLM-13 cells assessed as reduction in cell proliferation by CellTiter-Glo luminescent cell viability assay; type: functional
MDA-MB-231 = experiment: Antiproliferative activity against human MDA-MB-231 cells assessed as reduction in cell proliferation by CellTiter-Glo luminescent cell viability assay; type: functional
MV4-11 = experiment: Antiproliferative activity against human MV4-11 cells assessed as reduction in cell proliferation by CellTiter-Glo luminescent cell viability assay; type: functional
SW-620 [3] = experiment: Antiproliferative activity against human SW-620 cells assessed as reduction in cell proliferation by CellTiter-Glo luminescent cell viability assay; type: functional
CDK8/Cyclin C = CDK8/Cyclin C (Homo sapiens, UniProt P49336); experiment: Inhibition of kinase tracer 236 binding to full-length His-tagged recombinant human CDK8/cyclin C incubated for 60 mins by FRET based LanthaScreen Eu-Kinase binding assay; type: protein-complex assay
[4] = target: T2, Cyclin-dependent kinase 8; experiment: Inhibition of CDK8 in human SW-620 cells assessed as reduction in IFNgamma-induced STAT1 S727 phosphorylation pre-incubated for 1 hr before IFNgamma stimulation for 3 hrs by Western blot analysis; type: cell-based; settings: time 4.0 hrs
[5] = target: T1, Serine/threonine-protein kinase haspin (Homo sapiens); experiment: Inhibition of haspin in synchronized human SW620 cells assessed as reduction in IFNgamma-induced H3T3 phosphorylation pre-incubated for 1 hr before IFNgamma stimulation for 3 hrs by Western blot analysis; type: cell-based; settings: SW-620, time 4.0 hrs
[6] = target: T3, Serine/threonine-protein kinase haspin (Homo sapiens, UniProt Q8TF76); experiment: Inhibition of GST-tagged recombinant human haspin kinase domain incubated for 60 mins by ADP-Glo luminescent kinase assay
T3 sequence (Q8TF76 whole entry): T1 sequence (whole entry)

[7] = target: Cyclin-C/Cyclin-dependent kinase 19 (Homo sapiens, UniProt Q9BWU1); experiment: Inhibition of kinase tracer 236 binding to full-length His-tagged recombinant human CDK19/cyclin C incubated for 60 mins by FRET based LanthaScreen Eu-Kinase binding assay; type: protein-complex assay
A549 = experiment: Antiproliferative activity against human A549 cells assessed as reduction in cell proliferation by CellTiter-Glo luminescent cell viability assay; type: functional
SK-MEL19 = experiment: Antiproliferative activity against human SK-MEL19 cells assessed as reduction in cell proliferation by CellTiter-Glo luminescent cell viability assay; type: functional
BXPC-3 = experiment: Antiproliferative activity against human BXPC-3 cells assessed as reduction in cell proliferation by CellTiter-Glo luminescent cell viability assay; type: functional
HCT-116 = experiment: Antiproliferative activity against human HCT-116 cells assessed as reduction in cell proliferation by CellTiter-Glo luminescent cell viability assay; type: functional
SW-620 [8] = experiment: Inhibition of colony formation of human SW-620 cells incubated for 11 days (Every 3 days medium is changed by fresh medium and compounds were added freshly) by crystal violet staining based assay; type: functional, cell-based
DU-145 = experiment: Antiproliferative activity against human DU-145 cells assessed as reduction in cell proliferation by CellTiter-Glo luminescent cell viability assay; type: functional

Cyclin-C/Cyclin-dependent kinase 19, sequence (Q9BWU1 whole entry): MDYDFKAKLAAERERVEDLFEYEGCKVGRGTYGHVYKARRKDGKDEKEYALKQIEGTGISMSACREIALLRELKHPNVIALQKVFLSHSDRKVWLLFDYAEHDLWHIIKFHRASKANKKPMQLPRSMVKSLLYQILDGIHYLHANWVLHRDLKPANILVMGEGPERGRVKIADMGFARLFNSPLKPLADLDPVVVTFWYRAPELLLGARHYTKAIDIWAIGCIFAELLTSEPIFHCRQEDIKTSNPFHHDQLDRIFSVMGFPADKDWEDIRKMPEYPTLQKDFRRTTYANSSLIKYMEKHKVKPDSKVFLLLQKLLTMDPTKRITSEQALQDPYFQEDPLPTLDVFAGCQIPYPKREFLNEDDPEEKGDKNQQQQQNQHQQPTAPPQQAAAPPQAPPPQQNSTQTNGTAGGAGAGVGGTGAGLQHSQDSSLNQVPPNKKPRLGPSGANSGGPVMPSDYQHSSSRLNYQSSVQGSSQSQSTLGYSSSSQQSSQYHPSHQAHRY
Cyclin-C/Cyclin-dependent kinase 19, sequence (P24863 whole entry, further chain): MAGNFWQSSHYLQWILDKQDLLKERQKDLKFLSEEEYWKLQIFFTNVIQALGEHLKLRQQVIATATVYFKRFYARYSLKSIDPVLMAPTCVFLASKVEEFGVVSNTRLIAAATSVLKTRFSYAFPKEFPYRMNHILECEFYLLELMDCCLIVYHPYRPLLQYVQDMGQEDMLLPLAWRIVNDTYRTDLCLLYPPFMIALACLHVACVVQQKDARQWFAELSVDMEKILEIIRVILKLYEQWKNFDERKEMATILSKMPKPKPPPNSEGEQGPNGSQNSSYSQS
CDK8/Cyclin C, sequence (P49336 whole entry): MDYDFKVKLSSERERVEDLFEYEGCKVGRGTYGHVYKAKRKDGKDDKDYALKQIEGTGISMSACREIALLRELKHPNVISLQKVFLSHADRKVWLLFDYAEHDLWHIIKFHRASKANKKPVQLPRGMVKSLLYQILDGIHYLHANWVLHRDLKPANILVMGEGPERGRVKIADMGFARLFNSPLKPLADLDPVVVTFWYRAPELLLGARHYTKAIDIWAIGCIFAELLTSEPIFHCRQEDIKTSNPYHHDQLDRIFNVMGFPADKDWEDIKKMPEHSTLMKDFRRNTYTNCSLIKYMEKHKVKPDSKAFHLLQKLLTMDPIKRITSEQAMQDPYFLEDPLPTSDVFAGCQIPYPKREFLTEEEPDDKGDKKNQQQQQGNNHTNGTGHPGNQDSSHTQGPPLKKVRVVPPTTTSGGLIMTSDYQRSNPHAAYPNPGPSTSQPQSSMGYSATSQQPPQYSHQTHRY
CDK8/Cyclin C, sequence (P24863 whole entry, further chain): as the sequence (P24863 whole entry, further chain) above
T2 sequence (P49336 whole entry): as the sequence (P49336 whole entry) above

INH [2] [nM]	GI50 (MOLM-13; Homo sapiens, MOLM-13) [nM]	GI50 (MDA-MB-231; Homo sapiens, MDA-MB-231) [nM]	GI50 (MV4-11; Homo sapiens, MV4-11) [nM]	GI50 (SW-620 [3]; Homo sapiens, SW-620) [nM]	Structure (SMILES)	also measured
< 500	–	–	–	–	CCn1c(C(N)=O)cc2c1-c1ccncc1OC2C1CCCCC1 (stereo in doubt; form 2) [listing 1 of 2 here]	INH [1]: < 500 nM
< 500	< 1000	1000	< 1000	10000	NC(=O)c1cc2c([nH]1)-c1ccncc1OC21CCC1	–
< 500	–	–	–	–	CCn1c(C(N)=O)cc2c1-c1ccncc1OC21CCCCC1 [listing 1 of 3 here]	INH [1]: < 500 nM
–	–	–	–	–	CCn1c(C(N)=O)c(Cl)c2c1-c1ccncc1OC21CCCCC1	IC50 (CDK8/Cyclin C): < 1.41 nM
–	1000	1000	< 1000	10000	Cn1c(C(N)=O)cc2c1-c1ccncc1OC2(C)C	–
–	–	–	–	–	NC(=O)c1cc2c([nH]1)-c1ccncc1OC2C1CCOCC1 (stereo in doubt; form 2) [listing 1 of 2 here]	INH [4]: < 500 nM; INH [5]: 0.5 µM
–	1000	10000	1000	10000	NC(=O)c1cc2c([nH]1)-c1ccncc1OC21CCN(CC(F)(F)F)CC1	–
–	< 1000	1000	< 1000	1000	Cn1c(C(N)=O)cc2c1-c1ccncc1OC21CCOCC1	–
–	–	–	–	–	NC(=O)c1cc2c([nH]1)-c1ccncc1OC2C1CCOCC1 (stereo in doubt; form 2) [listing 2 of 2 here]	IC50 (CDK8/Cyclin C): 4.46 nM; GI50 (MDA-MB-231): 10000 nM; GI50 (MV4-11): 1000 nM; IC50 [6]: 406 nM; IC50 [7]: 14.2 nM; GI50 (SW-620 [3]): 10000 nM
–	–	250	–	250	CN(NC(=O)CC(=O)NN(C)C(=S)c1ccccc1)C(=S)c1ccccc1 [ELESCLOMOL]	GI50 (A549): 250 nM; GI50 (SK-MEL19): 250 nM; GI50 (BXPC-3): 62 nM
–	–	–	–	–	COCCn1c(C(N)=O)cc2c1-c1ccncc1OC2(C)C	INH [4]: < 500 nM; INH [5]: < 0.5 µM
< 500	< 1000	1000	< 1000	1000	CCn1c(C(N)=O)cc2c1-c1ccncc1OC21CCN(CC(F)(F)F)CC1	INH [1]: < 500 nM
–	–	–	–	–	NC(=O)c1cc2c(n1CCF)-c1ccncc1OC21CCOCC1	IC50 (CDK8/Cyclin C): < 1.41 nM
–	10000	10000	1000	10000	COCCn1c(C(N)=O)cc2c1-c1ccncc1OC21CCOCC1	–
< 500	< 1000	1000	< 1000	1000	NC(=O)c1cc2c(n1CCF)-c1ccncc1OC21CCCCC1	INH [1]: < 500 nM
–	–	–	–	–	NC(=O)c1cc2c([nH]1)-c1ccncc1OC2C1CCOCC1 (stereo in doubt; form 1) [listing 1 of 2 here]	INH [4]: 500 nM; INH [5]: 0.5 µM
–	–	–	–	–	CCn1c(C(N)=O)cc2c1-c1ccncc1OC21CCCCC1 [listing 2 of 3 here]	IC50 (CDK8/Cyclin C): 301 nM
–	< 1000	1000	< 1000	1000	NC(=O)c1cc2c([nH]1)-c1ccncc1OC21CCN(CCc2ccccc2)CC1	–
–	< 1000	10000	< 1000	10000	CCn1c(C(N)=O)cc2c1-c1ccncc1OC2C1CCCCC1 (stereo in doubt; form 1)	IC50 (CDK8/Cyclin C): 0.407 nM; IC50 [6]: 95.2 nM; IC50 [7]: 1.41 nM
–	–	–	–	5	CC(=O)O[C@H]1C(=O)[C@@]2(C)[C@H]([C@H](OC(=O)c3ccccc3)[C@]3(O)C[C@H](OC(=O)[C@H](O)[C@@H](NC(=O)c4ccccc4)c4ccccc4)C(C)=C1C3(C)C)[C@]1(OC(C)=O)CO[C@@H]1C[C@@H]2O [PACLITAXEL]	GI50 (HCT-116): 5 nM

INH [2] [nM]	GI50 (MOLM-13; Homo sapiens, MOLM-13) [nM]	GI50 (MDA-MB-231; Homo sapiens, MDA-MB-231) [nM]	GI50 (MV4-11; Homo sapiens, MV4-11) [nM]	GI50 (SW-620 [3]; Homo sapiens, SW-620) [nM]	Structure (SMILES)	also measured
–	< 1000	1000	< 1000	< 1000	NC(=O)c1cc2c([nH]1)-c1ccncc1OC2C1CCCCC1 (centres undefined)	IC50 (CDK8/Cyclin C): 19.3 nM; INH [4]: < 500 nM; INH [5]: 0.5 µM; IC50 [7]: 87.3 nM
–	–	–	–	–	COc1ccccc1-c1c2c(n(CCF)c1C(N)=O)-c1ccncc1OC2(C)C	EC50 (SW-620 [8]): 5430 nM; INH [4]: < 500 nM; INH [5]: 0.5 µM
< 500	< 1000	1000	< 1000	1000	NC(=O)c1cc2c(n1CCF)-c1ccncc1OC21CCC1	–
–	–	–	–	–	CCn1c(C(N)=O)cc2c1-c1ccncc1OC2C1CCOCC1 (centres undefined)	IC50 (CDK8/Cyclin C): < 1.41 nM; IC50 [6]: 355 nM
< 500	< 1000	1000	< 1000	1000	CC1(C)Oc2cnccc2-c2c1cc(C(N)=O)n2CCF	INH [1]: < 500 nM; INH [4]: < 500 nM; INH [5]: < 0.5 µM
–	–	–	< 1000	–	CC1(C)Oc2cncc(Cl)c2-c2[nH]c(C(N)=O)cc21	–
–	–	–	–	500	COc1ccc(S(=O)(=O)Nc2cccnc2Nc2ccc(O)cc2)cc1 [ABT-751]	–
–	1000	10000	< 1000	10000	CCn1c(C(N)=O)c(-c2cccc(OC)c2)c2c1-c1ccncc1OC2(C)C	–
< 500	< 1000	10000	< 1000	10000	CCn1c(C(N)=O)c(-c2ccccc2OC)c2c1-c1ccncc1OC2(C)C	INH [1]: < 500 nM; INH [4]: < 500 nM; INH [5]: < 0.5 µM
< 500	1000	10000	< 1000	1000	NC(=O)c1cc2c([nH]1)-c1ccncc1O[C@H]2C1CCCCC1	IC50 (CDK8/Cyclin C): 8.5 nM; INH [1]: < 500 nM; INH [4]: < 500 nM; INH [5]: < 0.5 µM; IC50 [7]: 7.14 nM
–	< 1000	1000	< 1000	1000	CCn1c(C(N)=O)cc2c1-c1ccncc1OC21CCCCC1 [listing 3 of 3 here]	–
–	–	–	–	1000	C[C@@H](Oc1cc(-c2cnn(C3CCNCC3)c2)cnc1N)c1c(Cl)ccc(F)c1Cl [CRIZOTINIB]	GI50 (HCT-116): 5000 nM; GI50 (SK-MEL19): 5000 nM; GI50 (DU-145): 20000 nM; GI50 (BXPC-3): 5000 nM
–	–	–	–	500	COc1cc(Nc2ncc3c(n2)-c2ccc(Cl)cc2C(c2c(F)cccc2OC)=NC3)ccc1C(=O)O [ALISERTIB]	GI50 (HCT-116): 12500 nM; GI50 (DU-145): 12500 nM
< 500	< 1000	1000	< 1000	1000	CCn1c(C(N)=O)cc2c1-c1ccncc1OC21CCOCC1	INH [1]: < 500 nM
–	–	–	–	–	CCn1c(C(N)=O)cc2c1-c1ccncc1OC2C1CCCCC1 (stereo in doubt; form 2) [listing 2 of 2 here]	IC50 (CDK8/Cyclin C): 1.36 nM; GI50 (MOLM-13): 1000 nM; IC50 [6]: 522 nM
< 500	1000	1000	< 1000	1000	CC1(C)Oc2cnccc2-c2[nH]c(C(N)=O)c(C3CC3)c21	–
–	–	10000	1000	–	CC1(C)Oc2cnccc2-c2[nH]c(C(N)=O)cc21	–
< 500	< 1000	1000	< 1000	1000	Cn1c(C(N)=O)cc2c1-c1ccncc1OC21CCCCC1	–
–	1000	–	< 1000	–	NC(=O)c1cc2c([nH]1)-c1ccncc1OC2C1CCOCC1 (stereo in doubt; form 1) [listing 2 of 2 here]	IC50 (CDK8/Cyclin C): 281 nM; GI50 (MDA-MB-231): 1000 nM; IC50 [6]: 5760 nM; GI50 (SW-620 [3]): 1000 nM
